Experimental data reported in ChEMBL document CHEMBL1122478, “Tricyclic triarylethylene antiestrogens: dibenz[b,f]oxepins, dibenzo[b,f]thiepins, dibenzo[a,e]cyclooctenes, and dibenzo[b,f]thiocins” (1983).

Columns and labels:
Type in all cases: functional
Rattus norvegicus [1] = species: Rattus norvegicus; assay: Minimum fully effective dose that prevented implantation of eggs in three out of three rats (MFED) (antifertility)
Mus musculus [2] = assay: Sedative activity measured after ip administration to female mice and checked for their horizontal movement at a dose of 1 mg/Kg
Mus musculus [3] = assay: Sedative activity measured after ip administration to female mice and checked for their horizontal movement at a dose of 5 mg/Kg
Mus musculus [4] = assay: Sedative activity measured after ip administration to female mice and checked for their horizontal movement at a dose of 10 mg/Kg
Rattus norvegicus [5] = species: Rattus norvegicus; assay: Dose prevented implantation in two out of 3 rats
Rattus norvegicus [6] = species: Rattus norvegicus; assay: Dose prevented implantation in two out of 3 rats;
Rattus norvegicus [7] = species: Rattus norvegicus; assay: Dose prevented implantation in two out of three rats

C=CCOc1ccc2c(c1)SCc1ccccc1/C(CC)=C\2c1ccccc1
MFED (Rattus norvegicus [1]): 5 mg/kg

C=CCOc1ccc2c(c1)Sc1ccccc1C(CC)=C2c1ccccc1
MFED (Rattus norvegicus [1]): >25 mg/kg
Reduction in movement (Mus musculus [2]): 48%
Reduction in movement (Mus musculus [3]): 76%

CCC1=C(c2ccc(O)cc2)c2ccc(OCC(O)CO)cc2Sc2ccccc21 (centres undefined)
MFED (Rattus norvegicus [1]): 5 mg/kg

CCC1=C(c2ccc(O)cc2)c2ccc(OCCN(C)C)cc2Sc2ccccc21
MFED (Rattus norvegicus [1]): 0.5 mg/kg
Reduction in movement (Mus musculus [4]): 45%

C=CCOc1ccc2c(c1)Oc1ccccc1C(CC)=C2c1ccc(O)cc1
MFED (Rattus norvegicus [1]): >25 mg/kg

C=CCOc1ccc2c(c1)Sc1ccccc1C(CC)=C2c1ccc(O)cc1
MFED (Rattus norvegicus [1]): 5 mg/kg

CCC1=C(c2ccc(O)cc2)c2ccc(OCCN(C)C)cc2Oc2ccccc21
MFED (Rattus norvegicus [1]): 10 mg/kg
Reduction in movement (Mus musculus [3]): 70%

CCC1=C(c2ccccc2)c2ccc(OCC(O)CO)cc2Oc2ccccc21 (centres undefined)
MFED (Rattus norvegicus [1]): 10 mg/kg

C=CCOc1ccc2c(c1)Oc1ccccc1C(CC)=C2c1ccccc1
MFED (Rattus norvegicus [1]): >25 mg/kg

CCC1=C(c2ccccc2)c2ccc(O)cc2Sc2ccccc21
MFED (Rattus norvegicus [1]): >5 mg/kg
Reduction in movement (Mus musculus [2]): 34%
Reduction in movement (Mus musculus [4]): 72%
Reduction in movement (Mus musculus [3]): 60%

CC/C1=C(\c2ccccc2)c2ccc(OCCN(C)C)cc2SCc2ccccc21
MFED (Rattus norvegicus [1]): 0.5 mg/kg

CCC1=C(c2ccc(O)cc2)c2ccc(OCC(O)CO)cc2Oc2ccccc21 (centres undefined)
MFED (Rattus norvegicus [1]): 25 mg/kg
Dose (Rattus norvegicus [5]): 10 mg/kg
Reduction in movement (Mus musculus [3]): 61%

C=CCOc1ccc2c(c1)SCc1ccccc1/C(CC)=C\2c1ccc(O)cc1
MFED (Rattus norvegicus [1]): 25 mg/kg
Dose (Rattus norvegicus [5]): ~10 mg/kg

CC/C1=C(\c2ccccc2)c2ccc(OCC(O)CO)cc2SCc2ccccc21 (centres undefined)
Dose (Rattus norvegicus [6]): 5 mg/kg

CC/C1=C(\c2ccc(O)cc2)c2ccc(OCCN(C)C)cc2SCc2ccccc21
MFED (Rattus norvegicus [1]): 0.5 mg/kg
Reduction in movement (Mus musculus [3]): 61%

CCC1=C(c2ccccc2)c2ccc(OCCN(C)C)cc2Oc2ccccc21
Dose (Rattus norvegicus [7]): ~10 mg/kg
MFED (Rattus norvegicus [1]): 25 mg/kg

CCC1=C(c2ccccc2)c2ccc(OCC(O)CO)cc2Sc2ccccc21 (centres undefined)
Dose (Rattus norvegicus [5]): ~25 mg/kg
Reduction in movement (Mus musculus [2]): 33%
Reduction in movement (Mus musculus [3]): 84%

CC/C1=C(\c2ccc(O)cc2)c2ccc(OCC(O)CO)cc2SCc2ccccc21 (centres undefined)
MFED (Rattus norvegicus [1]): 5 mg/kg
Reduction in movement (Mus musculus [3]): 62%

CCC1=C(c2ccccc2)c2ccc(OCCN(C)C)cc2Sc2ccccc21
MFED (Rattus norvegicus [1]): 5 mg/kg
Dose (Rattus norvegicus [5]): ~1 mg/kg
Reduction in movement (Mus musculus [2]): 49%
Reduction in movement (Mus musculus [4]): 46%

CN(C)CCCN1c2ccccc2Sc2ccc(Cl)cc21 [CHLORPROMAZINE]
Reduction in movement (Mus musculus [2]): 73%

CC/C(=C(\c1ccccc1)c1ccc(OCCN(C)C)cc1)c1ccccc1 [TAMOXIFEN]
MFED (Rattus norvegicus [1]): 0.1 mg/kg
